Measured values published in article PMC3764026, “Adaptive Evolution of Escherichia coli to an α-Peptide/β-Peptoid Peptidomimetic Induces Stable Resistance” (PLoS ONE, 2013).

Assays:
[1] = tested on: peptidomimetic-adapted E. coli isolates 2-7 and 7-3; experiment: Growth rate in MHB supplemented with peptidomimetic 1, adapted isolates; assay type: cell-based, Escherichia coli
Experimental: (§1) To evaluate whether resistance altered the physiology of the isolates, we determined the growth rate of all forty isolates from lineage 2, 4, 5 and 7 as well as of E. coli ATCC 25922 in unsupplemented MHB media. Additionally, we determined the growth rate of the four isolates 2-7, 4-4, 5-6 and 7-3, in MHB supplemented with peptidomimetic 1 at ½×wild type MIC or 1×wild type MIC (i.e. 4 and 8 µg/mL). […] Optical density readings were obtained at 570 nm at 10–12 minute increments on cultures grown at 37°C over 24 hours (unsupplemented MHB) or 72 hours (supplemented MHB) using the automated Bioscreen C system (Labsystems, Helsinki, Finland). Growth rates were found using linear regression on ln(initial CFU/mL) vs. detection time (i.e. the time until a 0.5 unit increase in absorbance was reached) for inoculum sizes ranging from 10^2–10^7 CFU/mL [58]. Data were analysed in GraphPad Prism version 4.03 using One-Way ANOVA followed by Dunnett’s Test to correct for multiple testing. Control groups were E. coli ATCC 25922 (in the absence of peptidomimetic) or E. coli ATCC 25922/isolates grown in unsupplemented media (in the presence of peptidomimetic). Significance levels were in all tests set at p<0.05. All experiments were performed in duplicate on at least two independent days.

E. coli ATCC 25922 = experiment: Growth rate in MHB supplemented with peptidomimetic 1, wild type; assay type: cell-based, Escherichia coli; settings: E. coli ATCC 25922 exposed to 1/16 or 1/32×wt MIC of peptidomimetic 1; p>0.05
Experimental: as §1

[2] = tested on: Escherichia coli ATCC 25922; assay type: cell-based; settings: wild-type E. coli ATCC 25922; MHB pH 7.4, 5×10^5 CFU/mL, 37°C, 18–20 h
Experimental: All experiments were performed with Escherichia coli ATCC 25922. Stock cultures of the wild-type strain and lineage isolates were stored at –80°C in 4% (w/v) glycerol, 0.5% (w/v) glucose, 2% (w/v) skimmed milk powder and 3% (w/v) tryptone soy powder. Lineage populations were frozen at –80°C in 50% (w/v) glycerol. All experiments were performed at 37°C. Experiments were carried out in cation-adjusted Mueller Hinton II broth (MHB) (Becton Dickinson 212322) adjusted to pH 7.4 or in 1% (w/v) peptone (Becton Dickinson 211677) for MIC determination of natural AMPs. Brain Heart Infusion (BHI) (CM1135) with agar (VWR 20768.292) 1.5% as gelling agent was used throughout for colony plating.
MIC was determined by using the micro-dilution method according to guidelines of the Clinical and Laboratory Standards Institute. Peptidomimetic 1 and erythromycin 1∶2 serial dilutions were prepared from 1024 µg/mL stock solutions to give a final range of 512-0.5 µg/mL in the wells. Ampicillin 1∶2 serial dilutions were prepared from a 256 µg/mL stock solution to give a final range of 128-0.13 µg/mL in the wells. Polymyxin B and gentamicin 1∶2 serial dilutions were prepared from a 64 µg/mL stock solution to give a final range of 32-0.03 µg/mL in the wells. Also, 1∶2 serial dilutions of the AMPs KR-12, IsCTp, melittin and PEP-1-K were prepared from 64 µg/mL stock solutions to give a final range of 32-0.03 µg/mL in the wells; however this was performed in 1% peptone instead of in MHB since activity was drastically diminished in the latter (not shown).
The population lineages were tested for their susceptibility towards peptidomimetic 1, polymyxin B, gentamicin and ampicillin. Single-culture isolates selected from these populations were additionally tested against peptidomimetic 1, polymyxin B, erythromycin and the five reference AMPs. To estimate the level of cross-resistance to closely related peptidomimetics, MIC determinations were performed for peptidomimetics 2 and 3 (Figure 1) towards selected isolates. […]

[3] = tested on: Escherichia coli ATCC 25922; experiment: Continuous selection experiment; assay type: cell-based
Experimental: Continuous selection of resistance was performed for peptidomimetic 1 (Figure 1) and for the clinically relevant natural antimicrobial peptide, polymyxin B. A bacterial suspension of a single colony of E. coli ATCC 25922 was re-inoculated (10 µl) five times in unsupplemented MHB (990 µl). It was then re-inoculated in MHB supplemented with peptidomimetic 1 (ten lineages) or polymyxin B (ten lineages), and after ten re-inoculations at constant peptidomimetic or polymyxin B concentration, the concentrations were doubled. […] Four lineages grown in MHB with MilliQ water were included as control. Re-inoculations were performed twice a day, but were reduced to once a day when growth was slower as assessed by turbidity of the cultures. The total number of passages (supplemented with peptidomimetic/AMP) was 77 times equivalent to approx. 500 generations. For each increase in concentration the lineages were preserved as freezing stocks. Ten colony isolates were randomly selected from each lineage population at 32×MIC and preserved as freezing stocks.

CC(=O)N[C@@H](CCCCNC(=N)N)C(=O)N(CCC(=O)N[C@@H](CCCCNC(=N)N)C(=O)N(CCC(=O)N[C@@H](CCCCNC(=N)N)C(=O)N(CCC(=O)N[C@@H](CCCCNC(=N)N)C(=O)N(CCC(=O)N[C@@H](CCCCNC(=N)N)C(=O)N(CCC(=O)N[C@@H](CCCCNC(=N)N)C(=O)N(CCC(N)=O)[C@@H](C)c1ccccc1)[C@@H](C)c1ccccc1)[C@@H](C)c1ccccc1)[C@@H](C)c1ccccc1)[C@@H](C)c1ccccc1)[C@@H](C)c1ccccc1 [peptidomimetic 1]
growth rate ([1]; isolate 2–7, MHB with 4 µg/mL peptidomimetic 1 (1/32×MIC), p<0.01 vs unsupplemented): significantly reduced growth rate
growth rate ([1]; isolate 2–7, MHB with 8 µg/mL peptidomimetic 1 (1/16×isolate MIC), p<0.01 vs unsupplemented, Bioscreen C, 37°C, 72 h): significantly reduced
growth rate ([1]; isolate 7-3, MHB with 8 µg/mL peptidomimetic 1 (1/16×isolate MIC), p<0.05 vs unsupplemented, Bioscreen C, 37°C, 72 h): significantly reduced
growth rate (E. coli ATCC 25922): reduced growth rate was not seen
wt MIC [2]: 8 µg/mL
lineages that eventually grew at 32×wt MIC ([3]; ten lineages per agent, from 1/16×wt MIC, doubled stepwise, 77 inoculations, approx. 500 generations, 32×wt MIC = 256 µg/mL peptidomimetic 1, 32 µg/mL polymyxin B): All ten
growth of unexposed control lineages at 4×wt MIC ([3]; two controls per agent, 32 µg/mL peptidomimetic 1 or 4 µg/mL polymyxin B): failed to grow
